Source: patent US20160002204A1 (Board of Regents, The University of Texas System, priority 2014, published 2016)

How the values were obtained:
[1] = target: T1, GLS1 (purified recombinant human GAC) (Homo sapiens, UniProt O94925); experiment: GLS1 enzymatic activity assay (dual-coupled, Amplex UltraRed/resorufin); format: biochemical
T1 sequence (O94925 55-598 isoform O94925-3 limits assumed): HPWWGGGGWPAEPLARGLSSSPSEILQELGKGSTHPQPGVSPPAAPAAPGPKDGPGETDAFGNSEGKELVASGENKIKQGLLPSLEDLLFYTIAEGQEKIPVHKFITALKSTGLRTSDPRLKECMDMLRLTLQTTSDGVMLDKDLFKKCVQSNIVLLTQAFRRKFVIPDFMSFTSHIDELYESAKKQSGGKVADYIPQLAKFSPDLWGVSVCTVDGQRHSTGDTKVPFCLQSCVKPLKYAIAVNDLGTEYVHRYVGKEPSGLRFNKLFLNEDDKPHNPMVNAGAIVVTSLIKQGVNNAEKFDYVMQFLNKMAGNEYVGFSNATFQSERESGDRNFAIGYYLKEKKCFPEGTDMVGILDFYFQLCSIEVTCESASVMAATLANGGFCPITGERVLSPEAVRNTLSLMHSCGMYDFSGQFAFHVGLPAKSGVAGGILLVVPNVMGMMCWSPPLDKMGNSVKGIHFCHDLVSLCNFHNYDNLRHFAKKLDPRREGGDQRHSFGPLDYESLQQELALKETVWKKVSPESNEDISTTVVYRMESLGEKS
Procedure, shortened: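 In this coupled fluorometric format, phosphate-activated GAC (2 nM, 50 mM phosphate) is pre-exposed to compound for 10 min before 1 mM glutamine addition. Product is tracked as resorufin (530/590 nm) over time or at 20 min, and potency is derived by logistic fitting.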

A549 cells = experiment: A549 proliferation (viability) assay, Cell Titer Fluor, 72 hours; format: cell-based; conditions: Homo sapiens
Procedure, shortened: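 1000 A549 cells/well, RPMI 1640/10% dialyzed FBS, 24 h attach; compound 72 h, 0.5% DMSO, 37 °C/5% CO2; Cell Titer Fluor fluorescence; EC50 via 4-parameter logistic.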

O=C(CC1CCN(CC(F)F)CC1)Nc1ccn(CCC(F)Cn2cc(C(=O)NCc3cccc(OC(F)(F)F)c3)nn2)c(=O)c1 (centres unmarked) [Example 242, 1-[4-(4-{2-[1-(2,2-difluoroethyl)piperidin-4-yl]acetamido}-2-oxo-1,2-dihydropyridin-1-yl)-2-fluorobutyl]-N-{[3-(trifluoromethoxy)phenyl]methyl}-1H-1,2,3-triazole-4-carboxamide]
IC50 [1]: < 100 nM
EC50 (A549 cells): 100 to 500 nM

O=C(CC1CCC1)Nc1ccn(CCC(F)Cn2cc(C(=O)NCc3ccc(C(F)(F)F)nc3)nn2)c(=O)c1F (centres unmarked) [Example 357, 1-{4-[4-(2-cyclobutylacetamido)-3-fluoro-2-oxo-1,2-dihydropyridin-1-yl]-2-fluorobutyl}-N-{[6-(trifluoromethyl)pyridin-3-yl]methyl}-1H-1,2,3-triazole-4-carboxamide]
IC50 [1]: < 100 nM
EC50 (A549 cells): 100 to 500 nM

O=C(Cc1ccccc1F)Nc1ccn(CCC(F)Cn2cc(C(=O)NCc3cccc(OC(F)(F)F)c3)nn2)c(=O)c1F (centres unmarked) [Example 328, 1-(2-fluoro-4-{3-fluoro-4-[2-(2-fluorophenyl)acetamido]-2-oxo-1,2-dihydropyridin-1-yl}butyl)-N-{[3-(trifluoromethoxy)phenyl]methyl}-1H-1,2,3-triazole-4-carboxamide]
IC50 [1]: < 100 nM
EC50 (A549 cells): < 100 nM

O=C(Cc1ccccc1)Nc1ccc(CCCCn2ccc(NC(=O)OC3CCCCC3)nc2=O)nn1 [Example 95, cyclohexyl N-(2-oxo-1-{4-[6-(2-phenylacetamido)pyridazin-3-yl]butyl}-1,2-dihydropyrimidin-4-yl)carbamate]
IC50 [1]: < 100 nM
EC50 (A549 cells): < 100 nM

Cc1ccc(CNC(=O)c2cn(CC(F)CCn3ccc(NC(=O)OC4CCC4)c(F)c3=O)nn2)cn1 (centres unmarked) [Example 396, cyclobutyl N-{3-fluoro-1-[3-fluoro-4-(4-{[(6-methylpyridin-3-yl)methyl]carbamoyl}-1H-1,2,3-triazol-1-yl)butyl]-2-oxo-1,2-dihydropyridin-4-yl}carbamate]
IC50 [1]: 100 to 500 nM
EC50 (A549 cells): < 100 nM

O=C(CN1CCSCC1)Nc1ccn(CCC(F)Cn2cc(C(=O)NCc3cccc(OC(F)(F)F)c3)nn2)c(=O)c1 (centres unmarked) [Example 228, 1-(2-fluoro-4-{2-oxo-4-[2-(thiomorpholin-4-yl)acetamido]-1,2-dihydropyridin-1-yl}butyl)-N-{[3-(trifluoromethoxy)phenyl]methyl}-1H-1,2,3-triazole-4-carboxamide]
IC50 [1]: < 100 nM
EC50 (A549 cells): < 100 nM

O=C(CC1CCCCC1)Nc1ccn(CCCCn2cc(C(=O)NCc3cc(C(F)(F)F)ccn3)nn2)c(=O)c1 [Example 194, 1-{4-[4-(2-cyclohexylacetamido)-2-oxo-1,2-dihydropyridin-1-yl]butyl}-N-{[4-(trifluoromethyl)pyridin-2-yl]methyl}-1H-1,2,3-triazole-4-carboxamide]
IC50 [1]: < 100 nM
EC50 (A549 cells): < 100 nM

O=C(Cc1ccccc1)Nc1ccn(CCC(F)Cn2cc(C(=O)NCC3CCCC3)nn2)c(=O)c1F (centres unmarked) [Example 381, N-(cyclopentylmethyl)-1-{2-fluoro-4-[3-fluoro-2-oxo-4-(2-phenylacetamido)-1,2-dihydropyridin-1-yl]butyl}-1H-1,2,3-triazole-4-carboxamide]
IC50 [1]: 100 to 500 nM
EC50 (A549 cells): 500 to 5000 nM

CO[C@@H](C(=O)Nc1ccn(CCC(F)Cn2cc(C(=O)NCc3ccc(C)nc3)nn2)c(=O)c1F)c1ccccc1 (stereo partly drawn) [Example 313, 1-(2-fluoro-4-{3-fluoro-4-[(2R)-2-methoxy-2-phenylacetamido]-2-oxo-1,2-dihydropyridin-1-yl}butyl)-N-[(6-methylpyridin-3-yl)methyl]-1H-1,2,3-triazole-4-carboxamide]
IC50 [1]: < 100 nM
EC50 (A549 cells): 100 to 500 nM

O=C(Nc1ccn(CCCCc2nnc(C(=O)NCCO)s2)c(=O)n1)OCc1ccccc1 [Example 119, benzyl N-[1-(4-{5-[(2-hydroxyethyl)carbamoyl]-1,3,4-thiadiazol-2-yl}butyl)-2-oxo-1,2-dihydropyrimidin-4-yl]carbamate]
IC50 [1]: 500 to 5000 nM
EC50 (A549 cells): > 5000 nM

Cc1ccn(CCCCn2cc(C(=O)NCc3cccc(OC(F)(F)F)c3)nn2)c(=O)c1 [Example 11, 1-(4-(4-methyl-2-oxopyridin-1(2H)-yl)butyl)-N-(3-(trifluoromethoxy)benzyl)-1H-1,2,3-triazole-4-carboxamide]
IC50 [1]: 500 to 5000 nM
EC50 (A549 cells): > 5000 nM

O=C(Cc1cccc(OC(F)(F)F)c1)Nc1ccc(CCCCn2ccc(NC(=O)NC3CCCCC3)nc2=O)nn1 [Example 107, N-[6-(4-{4-[(cyclohexylcarbamoyl)amino]-2-oxo-1,2-dihydropyrimidin-1-yl}butyl)pyridazin-3-yl]-2-[3-(trifluoromethoxy)phenyl]acetamide]
IC50 [1]: < 100 nM
EC50 (A549 cells): 500 to 5000 nM

O=C(CN1CCCC(F)(F)C1)Nc1ccn(CCC(F)Cn2cc(C(=O)NCc3cccc(OC(F)(F)F)c3)nn2)c(=O)c1 (centres unmarked) [Example 274, 1-(4-{4-[2-(3,3-difluoropiperidin-1-yl)acetamido]-2-oxo-1,2-dihydropyridin-1-yl}-2-fluorobutyl)-N-{[3-(trifluoromethoxy)phenyl]methyl}-1H-1,2,3-triazole-4-carboxamide]
IC50 [1]: < 100 nM
EC50 (A549 cells): < 100 nM

CC(C)(C)OC(=O)N1CCN(CC(=O)Nc2ccn(CCC(F)Cn3cc(C(=O)NCc4cccc(OC(F)(F)F)c4)nn3)c(=O)c2F)CC1 (centres unmarked) [Example 296, tert-butyl 4-{[(3-fluoro-1-{3-fluoro-4-[4-({[3-(trifluoro-methoxy)phenyl]methyl}carbamoyl)-1H-1,2,3-triazol-1-yl]butyl}-2-oxo-1,2-dihydropyridin-4-yl)carbamoyl]methyl}piperazine-1-carboxylate]
IC50 [1]: < 100 nM
EC50 (A549 cells): < 100 nM

O=C(CC1CCCCC1)Nc1ccn(CCC(F)Cn2cc(C(=O)NCc3cccc(OC(F)(F)F)c3)nn2)c(=O)c1 (centres unmarked) [Example 175, 1-{4-[4-(2-cyclohexylacetamido)-2-oxo-1,2-dihydropyridin-1-yl]-2-fluorobutyl}-N-{[3-(trifluoromethoxy)phenyl]methyl}-1H-1,2,3-triazole-4-carboxamide]
IC50 [1]: < 100 nM
EC50 (A549 cells): < 100 nM

O=C(Cc1ccccc1)Nc1ccn(CCCCn2cc(C(=O)NCc3ccccn3)nn2)c(=O)c1 [Example 34, 1-{4-[2-oxo-4-(2-phenylacetamido)-1,2-dihydropyridin-1-yl]butyl}-N-(pyridin-2-ylmethyl)-1H-1,2,3-triazole-4-carboxamide]
IC50 [1]: 100 to 500 nM
EC50 (A549 cells): > 5000 nM

CC(C)CC(=O)Nc1ccn(CCCCn2cc(C(=O)NCc3ccccn3)nn2)c(=O)c1 [Example 38, 1-{4-[4-(3-methylbutanamido)-2-oxo-1,2-dihydropyridin-1-yl]butyl}-N-(pyridin-2-ylmethyl)-1H-1,2,3-triazole-4-carboxamide]
IC50 [1]: 500 to 5000 nM
EC50 (A549 cells): > 5000 nM

O=C(Cc1ccccc1)Nc1ccn(CC[C@H](F)Cn2cc(C(=O)NCc3cc(C(F)(F)F)ccn3)nn2)c(=O)c1F [Example 125, (S)-1-(2-fluoro-4-(3-fluoro-2-oxo-4-(2-phenylacetamido)pyridin-1(2H)-yl)butyl)-N-((4-(trifluoromethyl)pyridin-2-yl)methyl)-1H-1,2,3-triazole-4-carboxamide]
IC50 [1]: < 100 nM
EC50 (A549 cells): < 100 nM

CCOC(=O)N1CCC(CC(=O)Nc2ccn(CCC(F)Cn3cc(C(=O)NCc4cccc(OC(F)(F)F)c4)nn3)c(=O)c2F)CC1 (centres unmarked) [Example 300, ethyl 4-{[(3-fluoro-1-{3-fluoro-4-[4-({[3-(trifluoro-methoxy)phenyl]methyl}carbamoyl)-1H-1,2,3-triazol-1-yl]butyl}-2-oxo-1,2-dihydropyridin-4-yl)carbamoyl]methyl}piperidine-1-carboxylate]
IC50 [1]: < 100 nM
EC50 (A549 cells): < 100 nM

O=C(NCc1cccc(OC(F)(F)F)c1)c1cn(CC(F)CCn2ccc(NC(=O)C3CCCCC3)c(F)c2=O)nn1 (centres unmarked) [Example 341, 1-[4-(4-cyclohexaneamido-3-fluoro-2-oxo-1,2-dihydropyridin-1-yl)-2-fluorobutyl]-N-{[3-(trifluoromethoxy)phenyl]methyl}-1H-1,2,3-triazole-4-carboxamide]
IC50 [1]: < 100 nM
EC50 (A549 cells): < 100 nM

Nc1ccn(CCC(F)Cn2cc(C(=O)NCc3ccc(C(F)(F)F)nc3)nn2)c(=O)c1F (centres unmarked) [Example 366, 1-[4-(4-amino-3-fluoro-2-oxo-1,2-dihydropyridin-1-yl)-2-fluorobutyl]-N-{[6-(trifluoromethyl)pyridin-3-yl]methyl}-1H-1,2,3-triazole-4-carboxamide]
IC50 [1]: > 5000 nM
EC50 (A549 cells): > 5000 nM

O=C(Cc1ccccc1)Nc1cnn(CCCCn2cc(C(=O)NCc3cccc(OC(F)(F)F)c3)nn2)c(=O)c1 [Example 172, 1-{4-[6-oxo-4-(2-phenylacetamido)-1,6-dihydropyridazin-1-yl]butyl}-N-{[3-(trifluoromethoxy)phenyl]methyl}-1H-1,2,3-triazole-4-carboxamide]
IC50 [1]: 100 to 500 nM
EC50 (A549 cells): 500 to 5000 nM
